This is an account of results in ChEMBL document CHEMBL1128934, “Nonpeptide glycoprotein IIB/IIIA inhibitors. 12. Potent and orally active centrally constrained thieno[2,3-c]pyridones” (Bioorg Med Chem Lett, 1996).

The assay is filed under the species Homo sapiens. Nature of the assay: Compound was evaluated for inhibition of ex vivo ADP mediated platelet aggregation of human gel filtered platelets. The class given is functional.
In turn, `O=C(NCc1ccccc1)N[C@@H](CNC(=O)c1cc2c(s1)CCN(CCC1CCNCC1)C2=O)C(=O)O` yielded a half-inhibitory concentration (IC50) of 25 nM.

For the compound `O=C(O)CCNC(=O)c1ccc2c(c1)C(=O)N(CCC1CCNCC1)C2`, the midpoint of inhibition, the IC50, lay at 25 nM.

`CCCCS(=O)(=O)N[C@@H](CNC(=O)c1cc2c(s1)CCN(CCC1CCNCC1)C2=O)C(=O)O` returned an IC50 of 8 nM.

The compound `O=C(O)CCNC(=O)c1cc2c(s1)CCN(CCC1CCNCC1)C2=O` gave an IC50 of 150 nM.

`O=C(NC[C@H](NS(=O)(=O)c1ccccc1)C(=O)O)c1cc2c(s1)CCN(CCC1CCNCC1)C2=O` showed an IC50 of 7 nM.

Regarding `C[C@H](CC(=O)O)NC(=O)c1cc2c(s1)CCN(CCC1CCNCC1)C2=O`, half-maximal inhibition (IC50) required 220 nM.

As for `O=C(NC[C@H](NS(=O)(=O)c1cccnc1)C(=O)O)c1cc2c(s1)CCN(CCC1CCNCC1)C2=O`, the half-inhibitory concentration (IC50) is 13 nM.

Compound `CCCCS(=O)(=O)N[C@@H](CNC(=O)c1csc2c1C(=O)N(CCC1CCNCC1)CC2)C(=O)O` had a half-inhibitory concentration (IC50) of 33000 nM.

As to `O=C(O)CCCC(=O)c1cc2c(s1)CCN(CCC1CCNCC1)C2=O`, the half-inhibitory concentration (IC50) turned out to be 260 nM.

By IC50 is commonly meant the concentration that gives 50% inhibition. Lower therefore signals greater potency.
